Experiment [1] addresses T1, Sentrin-specific protease 7 (Homo sapiens, UniProt Q9BQF6).
T1 sequence (Q9BQF6 whole entry): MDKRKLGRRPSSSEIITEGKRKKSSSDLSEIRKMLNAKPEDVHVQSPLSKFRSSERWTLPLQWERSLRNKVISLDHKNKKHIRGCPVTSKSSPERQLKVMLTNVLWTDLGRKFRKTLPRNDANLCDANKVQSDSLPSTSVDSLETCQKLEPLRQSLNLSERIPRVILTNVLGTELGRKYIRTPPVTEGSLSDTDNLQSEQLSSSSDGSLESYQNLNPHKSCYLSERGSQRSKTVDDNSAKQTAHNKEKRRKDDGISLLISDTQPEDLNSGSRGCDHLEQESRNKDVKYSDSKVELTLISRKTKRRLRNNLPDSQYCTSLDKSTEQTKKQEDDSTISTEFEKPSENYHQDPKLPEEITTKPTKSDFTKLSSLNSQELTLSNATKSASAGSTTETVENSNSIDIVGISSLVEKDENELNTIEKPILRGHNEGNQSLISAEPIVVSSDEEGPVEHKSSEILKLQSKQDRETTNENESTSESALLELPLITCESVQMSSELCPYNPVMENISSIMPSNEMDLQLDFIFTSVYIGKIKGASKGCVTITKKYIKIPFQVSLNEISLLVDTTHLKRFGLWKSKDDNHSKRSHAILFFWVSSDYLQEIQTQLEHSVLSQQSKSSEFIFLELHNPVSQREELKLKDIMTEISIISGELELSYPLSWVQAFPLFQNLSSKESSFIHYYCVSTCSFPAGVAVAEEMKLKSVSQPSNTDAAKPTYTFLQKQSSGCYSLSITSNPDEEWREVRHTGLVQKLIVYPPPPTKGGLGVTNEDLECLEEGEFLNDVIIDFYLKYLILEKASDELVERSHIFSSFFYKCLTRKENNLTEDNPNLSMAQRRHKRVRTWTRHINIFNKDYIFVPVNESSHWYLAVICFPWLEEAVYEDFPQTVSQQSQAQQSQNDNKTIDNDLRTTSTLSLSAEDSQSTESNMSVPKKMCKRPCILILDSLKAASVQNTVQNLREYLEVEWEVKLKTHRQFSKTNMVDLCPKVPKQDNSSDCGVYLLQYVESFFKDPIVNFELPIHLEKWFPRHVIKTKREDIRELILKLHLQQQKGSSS
The format is functional.

The target in experiment [2] is T2, Sentrin-specific protease 8 (Homo sapiens, UniProt Q96LD8).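 Note: luminescence read-out of SENP8 inhibition, dose-response confirmation following an ultra-high-throughput screen.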
T2 sequence (Q96LD8 whole entry): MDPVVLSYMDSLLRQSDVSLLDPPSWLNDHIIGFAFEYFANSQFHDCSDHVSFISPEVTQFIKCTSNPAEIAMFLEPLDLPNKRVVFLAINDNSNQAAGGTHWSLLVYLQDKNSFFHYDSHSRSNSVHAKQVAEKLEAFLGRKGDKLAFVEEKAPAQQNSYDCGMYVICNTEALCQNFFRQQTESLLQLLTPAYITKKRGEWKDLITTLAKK
Type of experiment: functional.

The target in experiment [3] is T3, Microphthalmia-associated transcription factor (Homo sapiens, UniProt O75030).
T3 sequence (O75030 whole entry): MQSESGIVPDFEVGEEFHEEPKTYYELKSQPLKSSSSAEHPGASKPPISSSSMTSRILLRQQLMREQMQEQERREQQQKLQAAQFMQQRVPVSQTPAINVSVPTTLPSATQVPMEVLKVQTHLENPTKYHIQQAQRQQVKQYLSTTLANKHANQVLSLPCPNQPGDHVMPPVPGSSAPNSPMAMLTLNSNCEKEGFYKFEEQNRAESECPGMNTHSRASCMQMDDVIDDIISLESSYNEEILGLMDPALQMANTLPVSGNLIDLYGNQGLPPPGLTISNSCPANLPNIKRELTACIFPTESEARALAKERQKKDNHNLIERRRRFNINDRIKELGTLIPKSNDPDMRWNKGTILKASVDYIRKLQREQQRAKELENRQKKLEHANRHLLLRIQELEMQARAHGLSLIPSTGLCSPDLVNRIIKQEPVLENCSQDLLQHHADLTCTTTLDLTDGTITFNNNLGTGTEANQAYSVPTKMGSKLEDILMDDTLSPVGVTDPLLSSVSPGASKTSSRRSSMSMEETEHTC
As to the kind of experiment: TRPM1 promoter luciferase signal decrease, dose response, MITF inhibitor project, cell-based, SK-MEL-5, cherry-picked, set 3 (AID 493073).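 Note: SK-MEL-5 melanoma cells with luciferase driven by the MITF target TRPM1 promoter.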 Type of experiment: functional.

For another experiment, the target named is T4, Protein RecA (Mycobacterium tuberculosis, UniProt P9WHJ3).
T4 sequence (P9WHJ3 whole entry): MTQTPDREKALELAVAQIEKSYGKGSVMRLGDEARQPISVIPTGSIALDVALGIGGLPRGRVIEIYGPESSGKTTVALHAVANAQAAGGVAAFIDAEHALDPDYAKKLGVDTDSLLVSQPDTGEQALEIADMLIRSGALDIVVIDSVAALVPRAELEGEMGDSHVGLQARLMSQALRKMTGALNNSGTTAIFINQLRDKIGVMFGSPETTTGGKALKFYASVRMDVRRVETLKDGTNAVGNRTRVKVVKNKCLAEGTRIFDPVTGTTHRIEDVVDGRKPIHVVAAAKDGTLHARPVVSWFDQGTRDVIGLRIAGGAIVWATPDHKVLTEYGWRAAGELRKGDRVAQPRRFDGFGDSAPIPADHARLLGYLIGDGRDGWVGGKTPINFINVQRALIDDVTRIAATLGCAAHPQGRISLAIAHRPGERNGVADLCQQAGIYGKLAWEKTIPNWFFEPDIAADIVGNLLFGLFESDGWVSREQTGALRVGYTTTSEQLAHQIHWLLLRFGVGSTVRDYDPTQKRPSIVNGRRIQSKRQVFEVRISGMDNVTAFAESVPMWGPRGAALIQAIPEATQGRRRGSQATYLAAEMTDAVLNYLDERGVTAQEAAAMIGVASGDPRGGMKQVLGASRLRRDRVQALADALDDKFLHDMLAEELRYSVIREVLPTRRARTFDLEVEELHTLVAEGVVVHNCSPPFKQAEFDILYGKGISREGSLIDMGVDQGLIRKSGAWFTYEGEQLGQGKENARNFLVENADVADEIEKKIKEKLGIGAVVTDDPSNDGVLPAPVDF
As to the kind of experiment: Fluorescence Cell-Free Homogeneous Dose Retest to Identify Inhibitors of RecA-Intein Splicing Activity. [Related pubchem assays (depositor defined):AID2097, AID2223, AID489010, AID492950]. The format is functional.

The nature of experiment [4]: A375 melanoma cell viability loss, dose response, counter-screen for MITF inhibitor project, CellTiter-Glo luminescence, dry powder, set 4 (AID 624364).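 Note: A375 melanoma cells are MITF independent so this is a counter screen.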 The format is functional, cell-based. To be noted: A-375. For orientation: A counterscreen serves to expose hits that act by an unwanted route or on another target.
Experiment [5] deals with Tyrosyl-DNA phosphodiesterase 2 (Homo sapiens, UniProt O95551). As to the kind of experiment: human TDP2 enzyme inhibitors, dose response, biochemical, epi absorbance, IC50 (AID 743297).
Tyrosyl-DNA phosphodiesterase 2, sequence (O95551 whole entry): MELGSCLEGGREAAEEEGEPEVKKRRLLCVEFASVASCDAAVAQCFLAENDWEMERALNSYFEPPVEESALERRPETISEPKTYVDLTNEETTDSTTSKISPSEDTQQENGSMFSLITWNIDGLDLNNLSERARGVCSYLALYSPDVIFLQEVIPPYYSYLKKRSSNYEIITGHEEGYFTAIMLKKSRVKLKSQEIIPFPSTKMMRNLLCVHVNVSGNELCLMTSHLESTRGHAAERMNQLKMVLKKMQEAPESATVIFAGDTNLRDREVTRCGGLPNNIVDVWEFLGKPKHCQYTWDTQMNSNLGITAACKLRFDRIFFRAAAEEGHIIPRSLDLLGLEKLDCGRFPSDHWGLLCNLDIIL
Experiment [6] is described as follows: A375 melanoma cell cytotoxicity, dose response, counter-screen for MITF inhibitor project, CellTiter-Glo luminescence, dry powder, set 2 (AID 624489).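 Note: actives are compounds lowering A375 viability meaning general cytotoxicity.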 The format is functional, cell-based. Particulars: A-375.

Activity calls are given as the source filed them.

Consider `Oc1[nH]c2ccccc2c1N=Nc1ccc(F)cc1`, for which the IC50 (as a rule, the point on the concentration scale where inhibition reaches its midpoint) was 1.51 µM (active) in experiment [1] and 3.07 µM (active) in experiment [2].
With `O=C1C(Nc2ccccc2)=C(N2CCCCC2)C(=O)c2ccccc21`, the half-maximal activity concentration (AC50) (usually the concentration giving half of the maximal activity seen) is 6.67 µM (active) in experiment [3], 37.4 µM (active) in experiment [4] and 24.9 µM (active) in experiment [6]. The half-maximal effective concentration (EC50) (in general, the midpoint of the concentration-response curve) on Protein RecA is 2.21 µM (active). In addition, the IC50 in experiment [5] was > 128 µM (inactive).

These data come from ChEMBL document CHEMBL1201862, “PubChem BioAssay data set” (2004).
